How the values were obtained:
LRRK2 = biological target: T1, LRRK2 (Homo sapiens, UniProt Q5S007); assay: HEK293 overexpression, pRab10 Thr73 and pSer935 LRRK2 immunoblot; assay type: cell-based
T1 construct: wild type LRRK2 overexpressed in HEK293 cells

LRRK1 = biological target: T2, LRRK1 (Homo sapiens, UniProt Q38SD2); assay: in vitro kinase assay, Rab7A Ser72 phosphorylation by immunoblot, […] ATP; assay type: biochemical
T2 construct: recombinant LRRK1, residues 28 to 2015
T2 sequence (Q38SD2 28-2015): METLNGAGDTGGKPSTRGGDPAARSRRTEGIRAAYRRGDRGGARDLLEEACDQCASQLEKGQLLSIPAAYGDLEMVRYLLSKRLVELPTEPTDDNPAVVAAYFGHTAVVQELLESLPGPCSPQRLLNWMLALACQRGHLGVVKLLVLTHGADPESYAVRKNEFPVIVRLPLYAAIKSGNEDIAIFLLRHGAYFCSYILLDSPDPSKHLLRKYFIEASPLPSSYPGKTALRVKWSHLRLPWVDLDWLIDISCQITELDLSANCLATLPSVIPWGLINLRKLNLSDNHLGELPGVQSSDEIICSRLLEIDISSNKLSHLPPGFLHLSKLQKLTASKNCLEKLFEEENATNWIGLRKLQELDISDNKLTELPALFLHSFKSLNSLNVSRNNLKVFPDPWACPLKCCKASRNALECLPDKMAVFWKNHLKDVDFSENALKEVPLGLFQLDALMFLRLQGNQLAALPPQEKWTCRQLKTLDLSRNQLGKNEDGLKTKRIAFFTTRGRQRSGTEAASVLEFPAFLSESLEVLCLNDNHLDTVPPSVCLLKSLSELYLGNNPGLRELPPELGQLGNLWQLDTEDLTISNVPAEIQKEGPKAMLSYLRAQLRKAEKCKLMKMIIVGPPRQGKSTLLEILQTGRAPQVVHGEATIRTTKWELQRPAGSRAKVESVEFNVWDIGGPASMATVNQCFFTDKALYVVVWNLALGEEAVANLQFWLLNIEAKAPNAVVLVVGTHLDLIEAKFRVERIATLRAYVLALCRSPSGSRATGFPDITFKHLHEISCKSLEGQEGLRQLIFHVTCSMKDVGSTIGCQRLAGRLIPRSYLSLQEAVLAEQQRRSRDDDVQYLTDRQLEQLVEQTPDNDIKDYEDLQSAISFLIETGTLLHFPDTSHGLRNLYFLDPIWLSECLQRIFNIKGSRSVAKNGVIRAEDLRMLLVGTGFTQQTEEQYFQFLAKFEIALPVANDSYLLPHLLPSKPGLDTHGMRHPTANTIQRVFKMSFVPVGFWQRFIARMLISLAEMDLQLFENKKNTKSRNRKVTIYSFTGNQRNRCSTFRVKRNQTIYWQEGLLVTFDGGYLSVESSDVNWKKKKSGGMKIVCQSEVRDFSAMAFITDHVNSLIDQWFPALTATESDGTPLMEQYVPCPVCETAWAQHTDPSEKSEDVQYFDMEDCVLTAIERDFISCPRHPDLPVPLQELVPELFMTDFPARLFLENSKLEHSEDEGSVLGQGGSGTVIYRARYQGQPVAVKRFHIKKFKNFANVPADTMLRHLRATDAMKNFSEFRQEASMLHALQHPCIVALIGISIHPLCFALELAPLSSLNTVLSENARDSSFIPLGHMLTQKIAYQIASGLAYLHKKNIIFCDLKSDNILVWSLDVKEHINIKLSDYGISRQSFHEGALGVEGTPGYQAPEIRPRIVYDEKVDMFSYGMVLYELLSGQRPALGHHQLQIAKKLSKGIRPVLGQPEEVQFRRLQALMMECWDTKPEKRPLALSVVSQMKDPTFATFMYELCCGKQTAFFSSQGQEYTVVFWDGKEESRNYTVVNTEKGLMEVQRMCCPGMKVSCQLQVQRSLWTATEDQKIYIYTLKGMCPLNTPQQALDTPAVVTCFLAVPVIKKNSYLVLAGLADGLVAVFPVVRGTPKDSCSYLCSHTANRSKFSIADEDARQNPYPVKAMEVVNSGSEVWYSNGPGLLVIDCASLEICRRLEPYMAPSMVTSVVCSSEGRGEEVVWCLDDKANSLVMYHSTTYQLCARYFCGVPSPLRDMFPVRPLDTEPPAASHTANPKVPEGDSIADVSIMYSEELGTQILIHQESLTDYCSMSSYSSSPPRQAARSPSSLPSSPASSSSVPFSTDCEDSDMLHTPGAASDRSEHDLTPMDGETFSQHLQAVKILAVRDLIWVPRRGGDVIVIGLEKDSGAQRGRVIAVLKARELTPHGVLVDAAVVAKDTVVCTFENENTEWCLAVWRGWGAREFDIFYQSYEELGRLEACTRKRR

T1 sequence (Q5S007 whole entry): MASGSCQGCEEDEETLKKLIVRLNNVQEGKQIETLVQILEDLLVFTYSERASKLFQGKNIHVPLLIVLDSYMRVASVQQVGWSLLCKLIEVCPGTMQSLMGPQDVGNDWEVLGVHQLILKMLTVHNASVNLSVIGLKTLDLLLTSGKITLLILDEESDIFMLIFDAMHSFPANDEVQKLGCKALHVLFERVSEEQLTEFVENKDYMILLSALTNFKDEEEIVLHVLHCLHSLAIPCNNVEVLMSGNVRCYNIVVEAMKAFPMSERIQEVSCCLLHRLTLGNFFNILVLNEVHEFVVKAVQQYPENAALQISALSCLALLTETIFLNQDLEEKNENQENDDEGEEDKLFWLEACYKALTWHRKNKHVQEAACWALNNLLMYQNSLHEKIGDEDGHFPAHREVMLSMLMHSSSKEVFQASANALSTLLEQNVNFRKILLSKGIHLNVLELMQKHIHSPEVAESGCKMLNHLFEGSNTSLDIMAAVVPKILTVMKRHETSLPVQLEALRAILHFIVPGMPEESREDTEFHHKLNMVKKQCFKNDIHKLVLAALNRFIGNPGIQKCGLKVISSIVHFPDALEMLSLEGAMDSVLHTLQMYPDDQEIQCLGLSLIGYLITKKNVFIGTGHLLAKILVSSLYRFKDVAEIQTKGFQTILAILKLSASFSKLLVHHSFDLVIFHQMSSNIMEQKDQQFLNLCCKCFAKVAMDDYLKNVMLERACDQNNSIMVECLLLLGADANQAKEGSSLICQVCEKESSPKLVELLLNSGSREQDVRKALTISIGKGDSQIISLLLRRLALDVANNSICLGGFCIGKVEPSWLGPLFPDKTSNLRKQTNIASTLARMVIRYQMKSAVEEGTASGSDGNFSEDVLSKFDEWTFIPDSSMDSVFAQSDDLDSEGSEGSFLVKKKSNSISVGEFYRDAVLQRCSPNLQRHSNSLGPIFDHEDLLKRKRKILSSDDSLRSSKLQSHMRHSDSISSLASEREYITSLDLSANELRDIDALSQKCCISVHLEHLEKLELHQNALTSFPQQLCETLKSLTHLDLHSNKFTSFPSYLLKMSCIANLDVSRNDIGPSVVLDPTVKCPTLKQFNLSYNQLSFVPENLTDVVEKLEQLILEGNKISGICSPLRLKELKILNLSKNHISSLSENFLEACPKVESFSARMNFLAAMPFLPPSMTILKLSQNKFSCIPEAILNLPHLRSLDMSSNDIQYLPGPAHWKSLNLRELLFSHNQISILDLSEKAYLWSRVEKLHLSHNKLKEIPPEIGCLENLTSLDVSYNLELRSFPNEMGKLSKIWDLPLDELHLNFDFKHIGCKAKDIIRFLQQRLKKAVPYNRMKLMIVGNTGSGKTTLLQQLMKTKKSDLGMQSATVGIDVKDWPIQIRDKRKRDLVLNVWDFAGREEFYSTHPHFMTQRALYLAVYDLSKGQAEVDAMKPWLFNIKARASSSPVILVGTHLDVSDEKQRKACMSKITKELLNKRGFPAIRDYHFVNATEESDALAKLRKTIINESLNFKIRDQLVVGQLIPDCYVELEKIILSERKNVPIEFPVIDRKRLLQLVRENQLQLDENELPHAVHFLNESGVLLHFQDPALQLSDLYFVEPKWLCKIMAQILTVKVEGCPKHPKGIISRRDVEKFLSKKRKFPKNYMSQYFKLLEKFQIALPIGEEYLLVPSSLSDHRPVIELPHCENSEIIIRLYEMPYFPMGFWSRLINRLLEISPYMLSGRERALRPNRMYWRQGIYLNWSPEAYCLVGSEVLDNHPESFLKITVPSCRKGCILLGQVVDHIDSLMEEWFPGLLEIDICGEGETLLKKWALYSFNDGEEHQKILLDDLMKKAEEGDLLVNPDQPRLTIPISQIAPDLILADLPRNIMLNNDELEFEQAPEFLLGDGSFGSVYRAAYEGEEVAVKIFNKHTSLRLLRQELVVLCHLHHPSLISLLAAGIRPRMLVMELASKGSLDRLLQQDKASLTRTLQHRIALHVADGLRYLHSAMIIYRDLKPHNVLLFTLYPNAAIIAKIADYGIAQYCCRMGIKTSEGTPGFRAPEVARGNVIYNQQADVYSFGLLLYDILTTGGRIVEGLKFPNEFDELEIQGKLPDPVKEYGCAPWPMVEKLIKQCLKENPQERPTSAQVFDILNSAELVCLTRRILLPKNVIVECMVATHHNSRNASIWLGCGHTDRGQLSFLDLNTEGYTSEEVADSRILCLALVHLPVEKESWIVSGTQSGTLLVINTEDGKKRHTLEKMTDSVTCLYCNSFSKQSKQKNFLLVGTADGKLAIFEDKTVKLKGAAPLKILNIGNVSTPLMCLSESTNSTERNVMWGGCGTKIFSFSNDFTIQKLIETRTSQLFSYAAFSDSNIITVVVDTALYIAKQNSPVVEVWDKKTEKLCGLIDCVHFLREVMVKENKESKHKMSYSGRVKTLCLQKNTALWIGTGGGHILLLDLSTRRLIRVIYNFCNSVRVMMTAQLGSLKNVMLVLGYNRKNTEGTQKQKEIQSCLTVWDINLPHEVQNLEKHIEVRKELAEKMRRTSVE

IC50 (LRRK1) [µM] | SMILES | HEK293 overexpression, pRab10 Thr73 and pSer935 LRRK2 immunoblot (LRRK2)
 | O=C(Nc1cccnc1)c1cc(-c2ccnc(F)c2)ccc1OCc1ccccc1 [GSK2578215A] | All inhibitors ablated LRRK2-mediated phosphorylation of Rab10 at Thr73 and LRRK2 at Ser935 in parallel experiments.
~0.02 | Cc1ccc(C(=O)Nc2ccc(CN3CCN(C)CC3)c(C(F)(F)F)c2)cc1C#Cc1cnc2[nH]ncc2c1 [GZD-824] | 
 | COc1cc(C(=O)N2CCC(N3CCN(C)CC3)CC2)ccc1Nc1ncc2c(n1)N(C)c1ccccc1C(=O)N2C [LRRK2-IN1] | All inhibitors ablated LRRK2-mediated phosphorylation of Rab10 at Thr73 and LRRK2 at Ser935 in parallel experiments.

From PMC7886321, “Deciphering the LRRK code: LRRK1 and LRRK2 phosphorylate distinct Rab proteins and are regulated by diverse mechanisms” (Biochemical Journal, 2021)
